Data as given in US7939097B2, “Intraocular lens containing releasable medication” (Carl Zeiss Meditec SAS, priority 1996, dated 2011).
“And” between values parts separate entries of the source, which are not always exact repeats. Identical values can stand only once.

Assays:
[1] = Forced release of diclofenac after autoclaving and 10 days in the impregnation solution (Example 10); format: physicochemical
Experimental: Each of three hydrophilic acrylic implants of the type used in Example 9 was first introduced into the container with a 0.9% NaCl solution containing 1.5 mg/ml diclofenac solution. The container was then autoclaved at 122° C. for 30 minutes. After autoclaving, the IOLs were left in their impregnation solution for 10 days at ambient temperature. The procedure described in Example 9 was used to release the absorbed quantities of the diclofenac from the IOLs. The amounts released were respectively 83.57 μg, 101.66 μg, 84.16 μg or an average of 89.79 μg per implant.

[2] = tested on: postoperative inflammation of the eye; assay: Anti-inflammatory effect of diclofenac-impregnated IOL after cataract operation in rabbits (Example 14); format: in vivo, rabbit; conditions: diclofenac-impregnated IOL versus same IOL without medicated product in opposite eye, three rabbits
Experimental: A test was carried out on three rabbits which were implanted with hydrophilic acrylic IOLs impregnated by autoclaving in a 1.5 mg/ml diclofenac solution at 120° C. for 30 minutes as described in Example 9 above. The object of this test was to determine the anti-inflammatory effect of diclofenac after a cataract operation. After extraction, the crystalline lens in each eye, the left eye was fitted with an impregnated IOL according to the invention and the right eye with the same kind of IOL with no medicated product therein. The eyes of the rabbit were examined by an operator on day one and microscopically by an ophtalmologist on day 7 and day 14 after the operation. The observations are set out in the following table.

[3] = Diclofenac absorbed versus time in the impregnation solution after sterilization (Example 12); format: physicochemical; conditions: for Average amount of diclofenac released (absorbed) per IOL: average of three IOLs; for amount of diclofenac released (absorbed) per IOL: individual tests
Experimental: This example included tests on 21 IOLs to ascertain the time it takes for the amount of diclofenac absorbed by the IOL to reach its equilibrium. Each IOL was immersed in 5 ml of 1.5 mg/ml diclofenac solution in deionized water and then sterilized as is conventional, namely at 120° C. for a period of 30 minutes. The sterilized IOLs were then allowed to cool and left in the impregnation solution at room temperature for respective periods of 10 days, 20 days, 35 days, 41 days, 50 days and 65 days. At the end of each of these periods, three IOLs were removed and the quantity of diclofenac was then measured by forced release comprising cycles in a double boiler at 97° C. followed by rest periods until the diclofenac was entirely released from the IOLs.
The amounts of diclofenac released and corresponding to the amounts absorbed for the respective periods are expressed in μg.

[4] = In vitro kinetics of release of diclofenac at 35° C. over 14 days; format: physicochemical; conditions: release in 0.9% NaCl at 35° C.
Experimental: The following experiments were intended to determine more precisely the kinetics of release of diclofenac (in vitro experiments). As previously, the quantities released were measured by sampling the release medium (0.9% neutral NaCl solution) at intervals for measurement and renewing it for a new interval. The samples were taken after 6 hours and 24 hours and then every 24 hours for 14 days in total. To approximate the actual (i.e. in vivo) conditions of use more closely, release was effected at 35° C. The IOLs were impregnated by two different methods. […] A second experiment was carried out without sterilization, the IOLs remaining in the diclofenac solution for 24 hours. The quantities released were substantially the same, to within ±10%, and are set out in the table below in hours (H), days (D) and μg/ml.

[5] = In vitro release of diclofenac from polyHEMA soft IOLs, impregnated for 7 days (Example 8); format: physicochemical; conditions: for Released quantities: polyHEMA IOL impregnated 7 days in saturated diclofenac; for Cumulative or total released quantities: polyHEMA IOL impregnated 7 days
Experimental: (§1) Initially, polyHEMA soft IOLs were impregnated by immersing them in a solution saturated with diclofenac (1.8 mg/ml, prepared by dissolving sodium diclofenac in a 0.9% solution of NaCl), at room temperature for 72 hours, carefully rinsed and then released into 1 ml of a 0.9% NaCl solution. After 6 hours, 24 hours and 96 hours, the diclofenac was measured in the release solution by HPLC, after which the IOL was rinsed and, for the intermediate durations, left to release in a new solution. It is understood that the released quantities correspond to the quantities previously absorbed and fixed in the IOLs The experiment of Example 7 was repeated leaving the IOLs in the saturated solution for 7 days instead of 3. The quantities released were checked after 6 hours and 24 hours.

[6] = Saturated diclofenac solution in 0.9% NaCl; format: physicochemical; conditions: sodium diclofenac dissolved in 0.9% NaCl solution
Experimental: as §1, with “In all the preceding examples the diclofenac was used at concentrations” for “The experiment”, “1.8 mg/ml or 1.5 mg/ml that is at or only slightly below” for “Example 7 was repeated leaving”, “saturation level.” for “IOLs in the saturated solution for 7 days instead of 3. The quantities released were checked after 6 hours and 24 hours.”

[7] = Diclofenac fixed from lower-concentration solutions after prior sterilization (Example 13); format: physicochemical; conditions: pre-sterilized hydrophilic acrylic IOL; for quantity of diclofenac fixed per IOL: 4 days of immersion
Experimental: In these tests, the hydrophilic acrylic IOLs were first sterilized in their sealed containers in a 0.9% NaCl solution, in accordance with the standard sterilization procedure used for conventional IOLs. The solution contained no active ingredient of any kind. After sterilization at 121° C. for 30 minutes the containers were opened and the IOLs transferred to other containers which had previously been filled with a 0.9% NaCl solution including respectively 0.9 mg/ml, 0.45 mg/ml and 0.225 mg/ml of diclofenac. The IOLs remained immersed in the impregnation solution for 4 days in each case. Thereafter the absorbed quantities of diclofenac were driven out of the IOLs in double boilers at 97° C. as described above. […] In a second series of tests conducted with an impregnation solution of 0.9% NaCl with 0.9 mg/ml under the same conditions as in the first series, except that the residence in the impregnation solution was 49 days. The resulting average quantity of diclofenac fixed by the IOLs was 502 μg per implant.

[8] = In vitro release of diclofenac from polyHEMA soft IOLs, impregnated for 72 hours (Example 7); format: physicochemical
Experimental: as §1, with “IOLs” for “IOLs The experiment of Example 7 was repeated leaving the IOLs in the saturated solution for 7 days instead of 3. The quantities released were checked after 6 hours and 24 hours.”

[9] = in vivo; conditions: rabbit
Experimental: (§2) Samples of aqueous humor (approximately 150 μl) and plasma (approximately 2 ml) were taken at random intervals.

[10] = tested on: inflammatory reactions of the eye; format: in vivo
Experimental: as §2

[11] = tested on: inflammatory reactions of the eye; assay: Clinical examination of rabbit eyes implanted with indomethacin PMMA lenses (Example 3); format: in vivo; conditions: PMMA IOL impregnated with indomethacin implanted in rabbit eye, opposite eye as control

O=C(O)Cc1ccccc1Nc1c(Cl)cccc1Cl [diclofenac]
average amount of diclofenac released per implant ([1]; as Example 10, average of three implants): 89.79 µg
amounts of diclofenac released per implant ([1]; hydrophilic acrylic IOL autoclaved at 122° C. for 30 minutes in 1.5 mg/ml diclofenac in 0.9% NaCl, then 10 days in the solution at ambient temperature, individual implants): 83.57 µg and 101.66 µg and 84.16 µg
anti-inflammatory effect, summary [2]: real anti-inflammatory effect
Average amount of diclofenac released (absorbed) per IOL ([3]; Day 0): 33.58 µg
Average amount of diclofenac released (absorbed) per IOL ([3]; Day 35): 92.96 µg
Average amount of diclofenac released (absorbed) per IOL ([3]; Day 41): 102.39 µg
Average amount of diclofenac released (absorbed) per IOL ([3]; Day 50): 104.33 µg
Average amount of diclofenac released (absorbed) per IOL ([3]; Day 65): 102.37 µg
amount of diclofenac released (absorbed) per IOL ([3]; sterilized at 120° C. for 30 minutes in 1.5 mg/ml diclofenac in deionized water, Day 0): 36.01 µg and 31.13 µg and 33.59 µg
amount of diclofenac released (absorbed) per IOL ([3]; sterilized, then left in impregnation solution at room temperature, Day 10): 83.57 µg and 101.66 µg and 84.16 µg
amount of diclofenac released (absorbed) per IOL ([3]; sterilized, then left in impregnation solution, Day 20): 92.68 µg and 95.60 µg and 109.99 µg
amount of diclofenac released (absorbed) per IOL ([3]; sterilized, then left in impregnation solution, Day 35): 86.65 µg and 100.06 µg and 92.18 µg
amount of diclofenac released (absorbed) per IOL ([3]; sterilized, then left in impregnation solution, Day 41): 106.94 µg and 108.33 µg and 91.90 µg
amount of diclofenac released (absorbed) per IOL ([3]; sterilized, then left in impregnation solution, Day 50): 85.29 µg and 114.80 µg and 112.90 µg
amount of diclofenac released (absorbed) per IOL ([3]; sterilized, then left in impregnation solution, Day 65): 107.06 µg and 98.64 µg and 101.41 µg
quantities released (Q) ([4]; IOL saturated with diclofenac, medium renewed each interval, 6 H): 95 µg/mL
quantities released (Q) ([4]; medium renewed, 2 D): 40 µg/mL
quantities released (Q) ([4]; medium renewed, 3 D): 30 µg/mL
quantities released (Q) ([4]; medium renewed, 4 D): 20 µg/mL
quantities released (Q) ([4]; medium renewed, 5 D): 18 µg/mL
quantities released (Q) ([4]; medium renewed, 6 D): 12 µg/mL
quantities released (Q) ([4]; medium renewed, 7 D): 10 µg/mL
quantities released (Q) ([4]; medium renewed, 8 D): 10 µg/mL
quantities released (Q) ([4]; medium renewed, 9 D): 11 µg/mL
quantities released (Q) ([4]; medium renewed, 10 D): 12 µg/mL
quantities released (Q) ([4]; medium renewed, 11 D): 14 µg/mL
quantities released (Q) ([4]; medium renewed, 12 D): 16 µg/mL
quantities released (Q) ([4]; medium renewed, 13 D): 18 µg/mL
quantities released (Q) ([4]; medium renewed, 14 D): 20 µg/mL
quantities released (Q) ([4]; medium renewed, 24 H): 80 µg/mL
Released quantities ([5]; 6 hours): 122 µg/mL
Released quantities ([5]; 24 hours): 109 µg/mL
Cumulative or total released quantities ([5]; 6 hours): 122 µg/mL
Cumulative or total released quantities ([5]; 24 hours): 231 µg/mL
concentration of solution saturated with diclofenac [6]: 1800 µg/mL
quantity of diclofenac fixed per IOL ([7]; 0.225 mg/ml diclofenac in 0.9% NaCl): 70 µg
quantity of diclofenac fixed per IOL ([7]; 0.45 mg/ml diclofenac in 0.9% NaCl): 148 µg
quantity of diclofenac fixed per IOL ([7]; 0.90 mg/ml diclofenac in 0.9% NaCl): 276 µg
average quantity of diclofenac fixed per implant ([7]; 0.9 mg/ml diclofenac in 0.9% NaCl, 49 days in the impregnation solution): 502 µg
Released quantities ([8]; polyHEMA IOL impregnated 72 hours at room temperature in saturated diclofenac, release into 1 ml 0.9% NaCl, 6 hours): 127 µg/mL
Cumulative or total released quantities ([8]; polyHEMA IOL impregnated 72 hours, 6 hours): 127 µg/mL
Cumulative or total released quantities ([8]; polyHEMA IOL impregnated 72 hours, 24 hours): 222 µg/mL
Cumulative or total released quantities ([8]; polyHEMA IOL impregnated 72 hours, 96 hours): 333 µg/mL
Released quantities ([8]; polyHEMA IOL impregnated 72 hours, release into new 1 ml 0.9% NaCl, 24 hours): 95 µg/mL
Released quantities ([8]; polyHEMA IOL impregnated 72 hours, release into new 1 ml 0.9% NaCl, 96 hours): 111 µg/mL

COc1ccc2c(c1)c(CC(=O)O)c(C)n2C(=O)c1ccc(Cl)cc1 [indomethacin]
concentration at 7 day [9]: ~0.11 µg/mL
clinical observations: inflammatory reactions ([10]; polyHEMA lens impregnated with indomethacin, rabbit eye): inflammatory reactions disappeared at least as quickly as in Example 3
clinical observations: tolerance of the lenses ([10]; rabbit, in vivo): well tolerated
clinical examination: inflammatory reactions [11]: inflammatory reactions had disappeared by the tenth day from implantation
